From patent publication US20220196635A1, “Fibrosis Assay” (Georgia Tech Research Corporation, priority 2020, published 2022) come the findings set out here.

The subject of assay [1] is NHLF cells and diseased IPF cells (primary human lung fibroblasts) in fibrin scaffold. The assay can be described thus: Microscale cell-mediated fibrinolysis assay (ATPS-printed fibroblast-laden fibrin scaffolds, brightfield pixel intensity). The class given is cell-based. The note with it: for impact on fibroblast-mediated fibrinolysis: 400 μM pirfenidone, 0.4 μM nintedanib, 20 μM diethyl-pythiDC, NHLF and IPF cells; for rate of cell-mediated fibrinolysis (50% degradation time): 100 μM hydrogen peroxide. As to the method: A stock solution of DEX (20% w/w dextran T500; Sigma) was prepared in phosphate buffered saline (PBS) on a rocker overnight. A stock solution of PEG (6% w/w, 35 k MW; Sigma) was prepared in fully supplemented culture media with 10% deionized water to balance osmolality. Both stock solutions were passed through a 0.22 um sterilizing syringe filter before storage. PEG working solutions were stored for up to 2 weeks at 4° C. Thrombin (Human Alpha Thrombin; Enzyme Research Labs) was also added to the PEG solution at a concentration of 0.1 U/mL immediately preceding experiments. Fibrinogen-DEX solutions were prepared by diluting fibrinogen stock solution (human fibrinogen 3; Enzyme Research Labs) to a final concentration of 4 mg/mL in a sterile solution of 4% 10×DMEM, 15% DEX stock solution (to a final concentration of 3% dextran), and 50% cell suspension in growth media. For all experiments excluding cell concentration evaluation, the cell suspension was diluted for 1000 cells per microliter in the final fibrinogen-DEX solution.
Normal human lung fibroblasts (NHLF lot #0000580583; […] Cells were passaged at 80-90% confluence and were sub-cultured in 1:3 ratios by trypsinization. When at the desired confluence, cells were washed with PBS and 0.05% trypsin solution was added to the flask. Cells were incubated for 2 min, diluted with fibroblast growth media, and then harvested and centrifuged (200× g, 5 min) in a conical tube. The supernatant was aspirated and the cell pellet was re-suspended in serum-free culture media. When used in fibrin degradation experiments, cells were re-suspended at 2× the final desired concentration (1000 cells/ul unless otherwise indicated). All experiments were conducted with cells at or below passage 12. In all experiments, media was changed every 48 hours and any media additives (plasminogen, TGF-β1, drugs, etc.) were included.
Working solutions of PEG with 0.1 U/mL of thrombin were warmed to 37° C. and pipetted into a 96-well plate. For production of droplets, fibrinogen-DEX solutions with cell suspension were maintained at 37° C. and pipetted directly into the PEG-thrombin media using either a manual pipette or a semi-automated 96-channel pipette (Viaflo-96; Integra). All assays utilized a volume of 1 μl unless otherwise noted. Following dispensing of the DEX phase, the plates were placed in an incubator at 37° C. for 30 min to allow the thrombin to enzymatically crosslink the fibrinogen into a fibrin matrix (FIG. 1A). The PEG-enriched media was then washed four times by removing, then replacing half of the media with PEG-free media. When applicable, the final media addition was supplemented with stimuli as detailed in Example 5 below. For the duration of each experiment, assay plates were imaged every 2 hours at 4× with an automated cell culture monitoring system (Incucyte S3; Essen Biosystems). After one day of culture, plasminogen (50 μg/mL) (Human Glu-Plasminogen; Enzyme Research Labs) was added as a 10× concentrated solution to each well in order to initiate assay degradation (FIG. 1B), unless otherwise noted for specific conditions. Fresh plasminogen was included with each subsequent media addition. Positive controls with active plasmin (1 U/ml) (Human Plasmin; Enzyme Research Labs) and negative controls without plasminogen were included in each experiment. As cells activated plasminogen, the fibrin scaffold progressively degraded as illustrated in FIG. 1C.
After each experiment, brightfield images for every time point were downloaded in jpeg format from the automated cell culture monitoring system. Python's OpenCV library was implemented for the masking approach illustrated in FIG. 2A. First, a threshold was set at 50% of the maximum intensity (128 for 8-bit integer pixel values) in order to isolate the darker pixels of semi-opaque fibrin hydrogel from the background of the image. A closing morphological filter with a 25×25 kernel was then applied to each mask in order to remove noise. […]

Assay [2] deals with human primary lung fibroblasts (NHLF, IPF) in fibrin micro-scaffolds. The assay can be described thus: Contracting scar-in-a-drop fibroplasia assay (final projected area of cell-ECM spheroids). The class given is cell-based. As to the method: Human primary lung fibroblasts were used in all experiments presented in this paper. Unless otherwise noted, experiments utilized normal human lung fibroblasts (NHLF B lot #0000580583; Lonza) from a person with a history of smoking. For experiments evaluating donor variability, the following cells were utilized: NHLF A (NHLF lot #0000608197; Lonza) from a person, IPF A (IPF lot #0000627840; Lonza) from a person, and IPF B (IPF lot #6F5002; Lonza) from a person. All cells were cultured in fibroblast growth media (FGM; Lonza). Cells were passaged at 80-90% confluence and were sub-cultured in 1:3 ratios by trypsinization. When at the desired confluence, cells were washed with PBS and 0.05% trypsin solution was added to the flask. Cells were incubated for 2 min, and then harvested and centrifuged ([…], 5 min) in a conical tube. The supernatant was aspirated and the cell pellet was re-suspended in FBS-free culture media. When used in fibrin degradation experiments, cells were re-suspended at 2× the final desired concentration (2500 cells/ul unless otherwise indicated). To promote collagen production and contraction in addition to fibrin degradation, serum (bovine or human) were added at 2% or higher up to about 10%. Higher cell densities (about 2500 cells/ul and higher up to about 10,000 cells/ul) also promote collagen production. All experiments were conducted with cells at or below passage 8 except for high passage experiments conducted at passage 12. In all experiments, media was changed every 48 hours and any media additives (plasminogen, TGF-β1, drugs, etc.,) were included.
ATPS printing of fibrin micro-scaffolds has previously described above. Briefly, working solutions of PEG with 0.1 U/mL of thrombin were warmed to 37° C. and pipetted into a 96-well plate. For production of droplets, fibrinogen-DEX solutions with cell suspension were maintained at 37° C. and 4 μl per assay (unless otherwise noted) was pipetted directly into the PEG-thrombin media using a semi-automated repeater pipette (Repeater E3X; Eppendorf). Following dispensing of the DEX phase, the plates were placed in an ambient air incubator at 37° C. for 30 min to allow the thrombin to enzymatically crosslink the fibrinogen into a fibrin matrix (FIG. 6A). The PEG-enriched media was removed using a 12-channel micropipette and replaced with 100 μl of fully supplemented media in each well. When applicable, this media addition was supplemented with stimuli as detailed in example 17 below. For the duration of each experiment, assay plates were imaged every 2 hours at 4× with an automated cell culture monitoring system (Incucyte S3; Sartorius). As the assay proceeded, the fibroblasts progressively remodeled the fibrin scaffold as illustrated in FIG. 6C.
After each experiment, the final projected areas of the cell-ECM spheroids were determined from brightfield images taken at the final time point using a benchtop imaging system (2× objective; EVOS M7000; ThermoFisher). These images were then segmented through a process of pixel classification, thresholding, and morphological filtering in order to isolate the cell-ECM construct area from the background.
Pixel classification implemented Ilastic, a freely available image classification tool developed by the European Molecular Biology Laboratory. Ilastik's pixel classification utility implements a random forest classifier for quick and robust segmentation. In order to train the classifier, 10 characteristic images were selected to include different stages of ECM remodeling. In this step, each individual pixel is assigned a probability for belonging to layers for the background or the cell-ECM construct. Ilastik enables interactive training of the random forest classifier via user annotations of the training images. […]

Where [3] appears, read: TGF-β1 treated (2 ng/mL), NHLF and IPF cells, 10 μM TM5275, 500 μM pirfenidone.

Regarding `CCOC(=O)c1ccc(-c2ncc(C(=O)OCC)s2)nc1` [diethyl-pythiDC], the “impact on fibroblast-mediated fibrinolysis” value (from here on “impact”) in assay [1] is reported as “significantly (P<0.05) delayed fibrinolysis”. Consider `COC(=O)c1ccc2c(c1)NC(=O)/C2=C(\Nc1ccc(N(C)C(=O)CN2CCN(C)CC2)cc1)c1ccccc1` [nintedanib], for which, in assay [1], the “impact” value is “did not show a significant impact on fibrinolysis”. In addition, the “final area of spheroids” value in assay [2] (all conditions (with and without TGF-β1; NHLF and IPF cells), 1 μM nintedanib) is “significant decreases in final area for all conditions”. Further, the “final projected area, fibroblast donor variability” value in assay [2] (nintedanib, 2 normal and 2 IPF donors, one IPF donor not statistically significant (p<0.3)) is recorded as “reduced the final projected area”. As for `OO` [hydrogen peroxide], the “rate of cell-mediated fibrinolysis (50% degradation time)” value was “no significant difference” in assay [1] (conditions that included TGF-β1 (2 ng/ml)) and “highly significant decreases in the rates of fibrinolysis” in assay [1] (no TGF-β1).

In the case of `Cc1ccc(=O)n(-c2ccccc2)c1` [pirfenidone], in assay [1], the “impact” value is reported as “did not show a significant impact on fibrinolysis”. Moreover, in assay [2] (setting [3]), the “final area of spheroids” value is reported as “significant decrease in final area”. For the molecule `O=C(COCC(=O)N1CCN(C(c2ccccc2)c2ccccc2)CC1)Nc1ccc(Cl)cc1C(=O)O` [TM5275], the “final area of spheroids” value in assay [2] (setting [3]) is “decreased the spheroid area”. In addition, the spheroid area result in assay [2] (conditions that omitted TGF-β1, 10 μM TM5275) is recorded as “not in conditions that omitted TGF-β1”.

B1: plasmin: Human Plasmin (Enzyme Research Labs), positive control for fibrin degradation (protein, UniProt P00747 20-580; P00747 581-810, looked up)
Plasmin heavy chain A: EPLDDYVNTQGASLFSVTKKQLGAGSIEECAAKCEEDEEFTCRAFQYHSKEQQCVIMAENRKSSIIIRMRDVVLFEKKVYLSECKTGNGKNYRGTMSKTKNGITCQKWSSTSPHRPRFSPATHPSEGLEENYCRNPDNDPQGPWCYTTDPEKRYDYCDILECEEECMHCSGENYDGKISKTMSGLECQAWDSQSPHAHGYIPSKFPNKNLKKNYCRNPDRELRPWCFTTDPNKRWELCDIPRCTTPPPSSGPTYQCLKGTGENYRGNVAVTVSGHTCQHWSAQTPHTHNRTPENFPCKNLDENYCRNPDGKRAPWCHTTNSQVRWEYCKIPSCDSSPVSTEQLAPTAPPELTPVVQDCYHGDGQSYRGTSSTTTTGKKCQSWSSMTPHRHQKTPENYPNAGLTMNYCRNPDADKGPWCFTTDPSVRWEYCNLKKCSGTEASVVAPPPVVLLPDVETPSEEDCMFGNGKGYRGKRATTVTGTPCQDWAAQEPHRHSIFTPETNPRAGLEKNYCRNPDGDVGGPWCYTTNPRKLYDYCDVPQCAAPSFDCGKPQVEPKKCPGR
Plasmin light chain B: VVGGCVAHPHSWPWQVSLRTRFGMHFCGGTLISPEWVLTAAHCLEKSPRPSSYKVILGAHQEVNLEPHVQEIEVSRLFLEPTRKDIALLKLSSPAVITDKVIPACLPSPNYVVADRTECFITGWGETQGTFGAGLLKEAQLPVIENKVCNRYEFLNGRVQSTELCAGHLAGGTDSCQGDSGGPLVCFEKDKYILQGVTSWGLGCARPNKPGVYVRVSRFVTWIEGVMRNN
modifications: Plasmin
notes: Human Plasmin (Enzyme Research Labs), positive control for fibrin degradation
As for B1, the “matrix degradation, positive control” value in assay [1] (exogenous plasmin 1 U/ml) is listed as “rapid matrix degradation”.
